Values quoted from earlier work as cited in patent US6627427B1, “Heterologous production of 15-methyl-6-deoxyerthronolide B” (Kosan Biosciences, Inc., priority 1999, dated 2003).

Experiments:
Gram-positive pathogens = conditions: including those carrying inducible MLS resistance and many S. pneumoniae and S. pyogenes strains carrying constitutive MLS resistance
[1] = statement with reference to PCT publications

Compound: CC[C@H]1OC(=O)[C@H](C)C(=O)[C@H](C)[C@@H](O[C@@H]2O[C@H](C)C[C@H](N(C)C)[C@H]2O)[C@](C)(OC/C=C/c2cnc3ccccc3c2)C[C@@H](C)C(=O)[C@H](C)[C@H]2NC(=O)O[C@@]21C [ABT-773]
- activity against Gram-positive pathogens (Gram-positive pathogens): excellent activity

Compound: CC[C@H]1OC(=O)[C@H](C)C(=O)[C@H](C)[C@@H](O[C@@H]2O[C@H](C)C[C@H](N(C)C)[C@H]2O)[C@](C)(OC)C[C@@H](C)C(=O)[C@H](C)[C@H]2N(CCCCn3cnc(-c4cccnc4)c3)C(=O)O[C@]12C [HMR 3647]
- activity against Gram-positive pathogens (Gram-positive pathogens): excellent activity

Compound: CCC[C@H]1OC(=O)[C@H](C)[C@@H](O[C@@H]2C[C@@](C)(OC)[C@@H](O)[C@H](C)O2)[C@H](C)[C@@H](O[C@@H]2O[C@H](C)C[C@H](N(C)C)[C@H]2O)[C@](C)(O)C[C@@H](C)C(=O)[C@H](C)[C@@H](O)[C@]1(C)O [Propyl erythromycin A, 15-methylerythromycin A]
- antibiotic activity [1]: potent antibiotic activity
